From US8889068B2, “Method for controlling microbial contamination, mineral suspensions obtained and uses thereof” (Omya International AG, priority 2005, dated 2014)

Test system: bacteria/yeasts cocktail indicated in table 28
Experiment: Disinfection test on simulated wagon washing water with Ca(OH)2
Type: cell-based
Procedure: In order to simulate wagon washing water, a buffered kitchen salt solution was used, comprising 3% by weight of a suspension of calcium carbonate, taken from example 1.
The Ca(OH)2 was dissolved in a buffered solution of sterile phosphate at 0.85% by weight (PBS) and was mixed after 24 hours' storage at 30° C. with the bacteria/yeasts cocktail indicated in table 28.
The samples were incubated once more for 24 hours at 30° C. and then removed from the plates.
The germs which had grown were examined under an optical microscope.
A cocktail of bacteria (in PBS), firstly, and a bacteria/yeasts cocktail in (PBS), secondly, were mixed with Ca(OH)2, stored, and then removed from their moulds.
Tables 29 and 30 indicate the OH^− ion concentration (mole/l) and the yeast germ concentration (number/ml) measured in the samples, after 24-hours' incubation, for different initial concentrations of Ca(OH)2.
Samples 9 and 10 of initial Ca(OH)2 concentration equal to 1000 ppm were then removed from their mould at 30° C. on to a bacterial medium called a PCA (Plate Count Agar).
After 48 hours' incubation, the samples are once again removed from their moulds on to the same medium of type PCA.
For a part of sample 9, named 9-2, the OH^− ion concentration was reduced to a value of 5×10^−7 mole/l by the addition of gaseous CO2. […]

`[Ca+2].[OH-].[OH-]` [Ca(OH)2] was tested, and the microbial germs (curative mode, initial Ca(OH)2 1000 ppm, after 24 hours) was “less than 10 number/ml” and the microbial germs concentration (protective mode, initial Ca(OH)2 200 ppm, after 24 hours' incubation at 30° C.) was 1000 number/ml.
